In brackets after ≈: the same amount, converted by molar mass. Read-outs that look alike come from different tables or passages of the source.
Experiments:
[1] = system: Pseudomonas aeruginosa M13513; test: MIC by broth microdilution (CLSI); assay type: cell-based; details: two consecutive values shown where replicates varied by one dilution
Excerpt: Pseudomonas aeruginosa M13513 is a clinical isolate carrying the carbapenemase KPC-2 (blaKPC-2 gene). This strain was generously supplied by the Servicio Antimicrobianos, Instituto Nacional de Enfermedades Infecciosas (INEI)-ANLIS “Dr. Carlos G. Malbrán” in Buenos Aires, Argentina.
For antimicrobial testing, bacterial cultures were maintained in Cation-Adjusted Mueller–Hinton Broth (CAMHB), following Clinical and Laboratory Standards Institute (CLSI) guidelines.
The minimal inhibitory concentration was assessed using a standard microdilution assay, following CLSI guidelines. Mueller–Hinton Broth (Laboratorios Britania S.A., Buenos Aires, Argentina) supplemented with Ca^2+ (20–25 mg/L) and Mg^2+ (10–12.5 mg/L) was used for the assay. The bacterial strains tested included Pseudomonas aeruginosa PAO1, Pseudomonas aeruginosa M13513, and Staphylococcus aureus ATCC® 25923.

Gram-negative bacteria = details: cited from earlier work
Excerpt: This resistance arises from enzymatic inactivation by carbapenemases, as mentioned before, decreased cellular entry due to reduced expression of the outer membrane porins, and increased expression of efflux pumps.

[2] = Pseudomonas aeruginosa, M13513, CAMHB, read-out: MIC

Compound: CNC(C)C1CCC(N)C(OC2C(N)CC(N)C(OC3OCC(C)(O)C(NC)C3O)C2O)O1 (centres unmarked) [Gentamicin]
- MIC [1, 2]: 2 µg/mL (≈ 4.19 µM)

Compound: C[C@@H](O)[C@H]1C(=O)N2C(C(=O)O)=C(SCCN=CN)C[C@H]12 [Imipenem]
- MIC ([1]; CAMHB): 256/512

Compound: C[C@@H](O)[C@H]1C(=O)N2C(C(=O)O)=C(S[C@@H]3CN[C@H](C(=O)N(C)C)C3)[C@H](C)[C@H]12 [Meropenem, meropenem]
- MIC ([1]; CAMHB): 512/1024

Compound: NC[C@H]1O[C@H](O[C@H]2[C@H](O)[C@@H](O[C@H]3O[C@H](CO)[C@@H](O)[C@H](N)[C@H]3O)[C@H](N)C[C@@H]2N)[C@H](N)C[C@@H]1O [Tobramycin]
- MIC [1, 2]: 1 µg/mL (≈ 2.14 µM)

Compound: polymyxin B
- interaction with meropenem (Gram-negative bacteria): displays synergy with meropenem

From paper PMC11940343, “In Vitro and In Vivo Evaluation of the De Novo Designed Antimicrobial Peptide P6.2 Against a KPC-Producing P. aeruginosa Clinical Isolate” (Biomolecules, 2025)
